Among the data in BindingDB's records for patent US20230399319 (Japan Tobacco, 2023) are IC50 values, retold here.

The structures appear in SMILES notation.

In the assay the target is NACHT, LRR and PYD domains-containing protein 3 (Homo sapiens, UniProt Q96P20). Put plainly: Evaluation of NLRP3 Inflammasome Inhibitory Activity Assay. As for the experimental part: The NLRP3 inflammasome inhibitory activity of test compounds were evaluated CM the basis of the inhibitory activity of the IL-1β, production in THP1-Null cells (Product Number: thp-null, InvivoGen). […] A solution containing a test compound (20 μL/well) was added to test compound-setting wells. […] The supernatant of the culture was cryonically stored (set at −20° C.) until measurement of IL-1β.
Sequence of NACHT, LRR and PYD domains-containing protein 3 (Q96P20 whole entry, the tested form may be a part): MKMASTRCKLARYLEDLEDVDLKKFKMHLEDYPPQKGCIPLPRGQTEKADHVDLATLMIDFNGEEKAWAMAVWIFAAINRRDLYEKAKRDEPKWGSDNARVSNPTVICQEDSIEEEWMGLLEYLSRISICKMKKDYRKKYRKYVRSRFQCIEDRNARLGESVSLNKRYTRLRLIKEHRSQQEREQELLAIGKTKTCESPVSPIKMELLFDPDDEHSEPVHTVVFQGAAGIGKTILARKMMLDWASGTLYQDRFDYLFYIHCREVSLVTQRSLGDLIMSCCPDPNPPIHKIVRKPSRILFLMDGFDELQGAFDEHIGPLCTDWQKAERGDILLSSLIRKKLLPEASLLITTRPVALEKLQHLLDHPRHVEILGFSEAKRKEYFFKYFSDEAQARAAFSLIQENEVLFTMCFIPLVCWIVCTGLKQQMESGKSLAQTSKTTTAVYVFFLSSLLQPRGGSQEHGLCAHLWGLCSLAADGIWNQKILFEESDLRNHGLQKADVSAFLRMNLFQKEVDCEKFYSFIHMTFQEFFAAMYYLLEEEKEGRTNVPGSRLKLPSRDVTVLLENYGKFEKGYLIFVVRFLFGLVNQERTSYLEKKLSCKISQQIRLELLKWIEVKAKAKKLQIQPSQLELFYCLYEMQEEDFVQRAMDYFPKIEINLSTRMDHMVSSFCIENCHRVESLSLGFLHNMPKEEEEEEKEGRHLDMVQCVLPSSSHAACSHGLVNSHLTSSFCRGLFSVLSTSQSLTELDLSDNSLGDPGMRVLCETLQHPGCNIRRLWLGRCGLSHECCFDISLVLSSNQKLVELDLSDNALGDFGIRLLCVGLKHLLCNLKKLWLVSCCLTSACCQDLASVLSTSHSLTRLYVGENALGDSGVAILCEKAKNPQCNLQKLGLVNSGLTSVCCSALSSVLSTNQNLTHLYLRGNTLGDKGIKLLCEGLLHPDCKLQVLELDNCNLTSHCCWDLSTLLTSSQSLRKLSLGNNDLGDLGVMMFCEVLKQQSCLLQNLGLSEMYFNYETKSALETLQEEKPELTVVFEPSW
Compound `Cc1ccc(C)c(Nc2nc(C(=O)NS(=O)(=O)N3CCOC(COCC4CCC4)CC3)co2)c1` (stereo not drawn) [US20230399319, Example 2-342] gave an IC50 of 10 nM. Compound `COC1COCCN(S(=O)(=O)NC(=O)c2coc(Nc3cc(C(C)C)c(F)cc3C)n2)C1` (stereo not drawn) [US20230399319, Example 2-343] displayed an IC50 of 16 nM. `COC[C@@H]1CCN(S(=O)(=O)NC(=O)c2coc(Nc3cc(C)c(F)cc3C)n2)CCO1` [US20230399319, Example 2-347] returned an IC50 of 55 nM. `Cc1cc(F)c(C(C)C)cc1Nc1nc(C(=O)NS(=O)(=O)N2CCOC(CO)CC2)co1` (stereo not drawn) [US20230399319, Example 2-348]: the midpoint of inhibition, the IC50, lay at 28 nM. As to `Cc1ccc(C)c(Nc2nc(C(=O)NS(=O)(=O)N3CCOC(CC#N)CC3)co2)c1` (stereo not drawn) [US20230399319, Example 2-349], 1200 nM corresponded to half-maximal inhibition (IC50).

For the compound `Cc1cc(F)c(C(C)C)cc1Nc1nc(C(=O)NS(=O)(=O)N2CCOCC(O)C2)co1` (stereo not drawn) [US20230399319, Example 2-350], the IC50 is 15 nM. With `Cc1cc(F)c(C(C)C)cc1Nc1nc(C(=O)NS(=O)(=O)N2CCOCC(C)(O)C2)co1` (stereo not drawn) [US20230399319, Example 2-351] the figure was 22 nM.

Turning to `CCOCC1CCN(S(=O)(=O)NC(=O)c2coc(Nc3cc(OC)c(F)cc3C)n2)CCO1` (stereo not drawn) [US20230399319, Example 2-352], the IC50 stood at 26 nM. Compound `Cc1cc(Nc2nc(C(=O)NS(=O)(=O)N3CCOC(COCC(C)(C)O)CC3)co2)c(C)cc1F` (stereo not drawn) [US20230399319, Example 2-353] yielded an IC50 of 16 nM. Under `COC[C@H]1CCN(S(=O)(=O)NC(=O)c2coc(Nc3cc(C)c(F)cc3C)n2)CCO1` [US20230399319, Example 3-001] stands 72 nM; under `Cc1cc(Nc2nc(C(=O)NS(=O)(=O)N3CCOC(C(C)(C)O)CC3)co2)c(C)cc1F` (stereo not drawn) [US20230399319, Example 3-002], 49 nM; under `CCOC[C@H]1OCCN(S(=O)(=O)NC(=O)c2coc(Nc3cc(C)c(F)cc3C)n2)C[C@@H]1OC` [US20230399319, Example 3-006], 30 nM. With `CCOC[C@@H]1OCCN(S(=O)(=O)NC(=O)c2coc(Nc3cc(C)c(F)cc3C)n2)C[C@H]1OC` [US20230399319, Example 3-007] the figure was 820 nM.

For orientation: IC50 means the point on the concentration scale where inhibition reaches its midpoint.
